Experimental findings from article PMC12051620, “Molecular basis underlying the specificity of an antagonist AA92593 for mammalian melanopsins” (The Journal of Biological Chemistry, 2025) are described below.

In assay [1] the test system is chicken Opn4-1 C94^2.61F/T188^ECL2S/A269^6.52S mutant. Put plainly: GsX GloSensor assay with Gsα/q11. The note with it: 16.7 μM AA92593, COS-1 cells. It is filed as cell-based. From the text: (§1) The GsX GloSensor assay using Gsα/q11 of Xenopus Opn4x and chicken Opn4-1 detected the light-dependent Gq activation in both non-mammalian-type melanopsins (Fig. 6, A and D). […] The ineffectiveness of AA92593 is consistent with the fact that Phe-94^2.61, Ser-188^ECL2, and Ser-269^6.52 are not conserved among non-mammalian-type melanopsins (Figs. 2A, S2 and S3). If these three residues are important for the antagonistic effect against melanopsins, the introduction of Phe-94^2.61/Ser-188^ECL2/Ser-269^6.52 into the non-mammalian-type melanopsins would make them susceptible to AA92593. As expected, the substitutions of C94^2.61F/T188S^ECL2/A269^6.52S in Xenopus Opn4x and chicken Opn4-1 increased their sensitivity to AA92593 by ∼49% and ∼22%, respectively (Fig. 6, B and E, G–I). […]
(§2) For GloSensor assay, opsins, GloSensor assay sensor (coded by pGlo-22F), and NanoBiT-tagged G proteins were transiently expressed in COS-1 cells (kindly provided from Dr David Farrens, Oregon Health and Science University) using PEI as described previously ([24], [52]). […] For GFP-fluorescence microscopy, a 35-mm cell culture dish (IWAKI) was transfected with 2 μg melanopsin-GFP plasmid and 8 μg PEI in 400 μl Opti-mem and 1.2 ml D-MEM. […]

In assay [2] the test system is Xenopus Opn4x C94^2.61F/T188^ECL2S/A269^6.52S mutant. As to the kind of experiment: GsX GloSensor assay with Gsα/q11. It is filed as cell-based. The settings on record: 16.7 μM AA92593, COS-1 cells.
Source text: as §1, §2

As to `COc1ccc(S(=O)(=O)N2CCCCC2)cc1C` [AA92593], the figures for the “increase in sensitivity to AA92593 vs WT” value in assay [1] and in assay [2] were roughly 22% and roughly 49%, respectively.
